Reference: US12123813B2, “Polymer stabilization of chromogen solutions” (Ventana Medical Systems, Inc., priority 2012, dated 2024)
Counter-ions that a name gives are not always drawn.

Assays:
[1] = Polymer screening: DAB sulfate precipitation after KHSO4 addition (visual); type: physicochemical; details: additive in DAB chromogen solution
Experimental: One embodiment of a DAB base solution comprises DAB chromogen, one or more enhancers, and a stabilizer. […] Exemplary base solutions comprise 5.5 mM DAB, 10 mM imidazole, 10 mM 2-hydroxypyridine, and 1 mM sodium metabisulfite, with a pH of 2.5±0.1. In one embodiment, these compositions were tested using KHSO4 concentrations ranging from 0 to about 10 mM; more typically 0, 1.37, 2.75 and 8.0 mM, with DAB sulfate precipitation being induced at 4° C. overnight.
Polymers were screened for their impact on DAB sulfate precipitation formation by combining an enhanced DAB base solution containing a set amount of the polymer with select molar ratios of potassium hydrogen sulfate, KHSO4, relative to DAB. The enhanced DAB base solution used comprised 5.5 mM DAB·4HCl, 10 mM imidazole, 10 mM 2-hydroxypyridine, 1 mM sodium metabisulfite and 0.05% w/v Brij 35 at pH=2.3±0.1. The potassium hydrogen sulfate concentrations screened were 2.75 and 8.0 mM. […] Solutions were monitored for physical changes (i.e. color or precipitation).
Candidate polymers were screened for their impact on DAB sulfate precipitation formation by combining an enhanced DAB base solution containing a set amount of the polymer with select molar ratios of potassium hydrogen sulfate, KHSO4, relative to DAB. […] Solutions were monitored for physical changes (i.e. color or precipitation).

[2] = Water solubility of DAB-polymer complex in chromogen solution; type: physicochemical
Text: Sulfate and sulfonate polymers are believed to form a DAB-polymer salt complex where the hydrophilic polymer backbone helps maintain water solubility.

Row | Structure (SMILES) | inhibition of DAB sulfate precipitation (in words) [1] | formation of water soluble DAB-polymer complex (in words) [2]
1 | CC(O)CO (centres unmarked) [1,2-propanediol] | failed to inhibit DAB sulfate precipitation | –
2 | NCCOS(=O)(=O)O [2-aminoethylhydrogen sulfate] | – | did not form water soluble DAB complexes
